What was measured:
[1] = Cytotoxicity assay (CellTiter-Glo), SW982; assay type: cell-based; settings: human, SW982 cells; concentrations up to 50 µM; read-out: Cytotoxic effect SW982 IC50
Method: Cytotoxicity was analyzed using a CellTiter-Glo Luminescent Cell Viability Assay Kit (Promega), according to the manufacturer’s protocol. Briefly, cells were cultured at a density of 10^4 to 10^5 cells/well with different concentrations of test compounds (final concentration of DMSO was 1%) for the indicated periods of time (2, 12, or 24 h) at 37°C and 5% CO2. Following treatment, substrate was added to the cells, and the samples were analyzed with a Fluoroscan Ascent FL microplate reader.

JNK3 = biological target: JNK3; set-up: method as in Schepetkin et al., 2019; settings: previously reported binding affinity; ref Schepetkin et al., 2019; cited from earlier work
[2] = tested on: MMP-3 secretion by SW982 cells; assay: IL-1β-induced MMP-3 secretion by SW982 cells (ELISA); assay type: cell-based; settings: Homo sapiens, 30 min compound, then 5 ng/ml IL-1β, 24 h
Method: FLS, HUVEC, SW982, and THP-1 cells were plated in 96 well plates (10^4 to 10^5 cells/well) for 48 h before treatment. At 2 days post-confluency, the cells were serum-starved and washed twice (with the exception of THP-1 cell, which were not washed) with FBS-free medium prior to the addition of test compounds. The cells were incubated in the presence or absence of test compounds or DMSO (vehicle control) for 30 min at 37°C in a 5% CO2 atmosphere, IL-1β (5 ng/ml) was added, and the cells were incubated for an additional 24 h. Culture supernatants were collected and stored at –80°C. The levels of MMP-1 and MMP-3 were determined in culture supernatants using commercially available ELISA kits according to the manufacturer’s instructions (R&D System, Minneapolis, MN, USA). IL-6 levels were also determined in the supernatants using a human IL-6 ELISA kit (BD Biosciences, San Jose, CA, USA).

JNK1 = biological target: JNK1; set-up: method as in Schepetkin et al., 2019; settings: previously reported binding affinity; ref Schepetkin et al., 2019; cited from earlier work
[3] = tested on: MMP3 gene expression in FLS; assay: MMP3 gene expression in IL-1β-stimulated FLS (qPCR); assay type: cell-based, human; settings: 4, 10, 25 µM, 1 h before IL-1β (2 ng/ml) for 6 h, vs vehicle
Method: For MMP mRNA analysis, FLS were plated in six-well plates, cultured until 80% confluence, and subsequently serum starved (1% FBS/DMEM) for 24 h. […] The mRNA was isolated and reverse transcribed to obtain cDNA. Quantitative real-time polymerase chain reaction was performed using primer probe sets for MMP3 and glyceraldehyde 3-phosphate dehydrogenase (GAPDH) (Life Technologies). Threshold cycle values were obtained and normalized to GAPDH expression.

SMILES	IC50 [1]	JNK3 Kd (JNK3)	IC50 [2]	Kd (JNK1)	MMP3 mRNA levels [3]
O=C1c2ccccc2-n2c1nc1ccccc1c2=O [TRYP, indolo[2,1-b]quinazolin-6,12-dione]	19.1 ± 4.9 µM	No binding	8.7 ± 0.3 µM	23 µM	dose-dependent reduction
O=c1c2ccccc2nc2n1-c1ccccc1/C2=N/O [TRYP-Ox, tryptanthrin-6-oxime]	> 50 µM	–	1.4 ± 0.1 µM	–	dose-dependent reduction
